Measured values taken from patent US6815183B1, “Plasmodium sp. chitinase” (The Board of Regents of the University of Texas System, priority 1999, dated 2004).
Like-named read-outs stand apart in the source and are kept apart here.

Key:
[1] = test system: Endo Lys-C-treated rPgCHT1; assay: Kinetics of Endo Lys-C-treated rPgCHT1-NT1 on 4-MU substrates (Lineweaver-Burk plot); settings: pH 6.0
Method: Analysis of Chitinase Activity. Chitinase activity of both native and recombinant chitinases was assessed in three ways. […] Second, microfluorimetry (HTS7000, Perkin-Elmer, excitation 360 nm and emission 465 nm) was used to measure the hydrolysis of 4-MU GlcNAc, 4-MU GlcNAc2, 4-MU GlcNAc3, and 4-MU GlcNAc4 (Sigma) as described previously. Initial enzyme reaction rates were measured. Enzymatic activity is reported as relative fluorescence units or fold change.

[2] = biological target: peak 2 of chitinase activity (PgCHT2) (Plasmodium gallinaceum, UniProt A0A1J1H1G1); assay type: biochemical
peak 2 of chitinase activity (PgCHT2), sequence (A0A1J1H1G1 entry or part of it): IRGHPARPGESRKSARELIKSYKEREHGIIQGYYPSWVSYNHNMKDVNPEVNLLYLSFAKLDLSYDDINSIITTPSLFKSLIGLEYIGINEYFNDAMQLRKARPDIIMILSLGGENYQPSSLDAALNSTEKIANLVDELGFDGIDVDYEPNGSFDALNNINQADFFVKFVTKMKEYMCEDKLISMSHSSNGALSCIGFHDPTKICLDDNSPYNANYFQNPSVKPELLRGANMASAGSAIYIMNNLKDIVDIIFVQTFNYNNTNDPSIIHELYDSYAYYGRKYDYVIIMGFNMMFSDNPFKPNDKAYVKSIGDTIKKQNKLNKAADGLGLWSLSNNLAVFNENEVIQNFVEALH

[3] = biological target: peak 1 of chitinase activity (native PgCHT1) (Plasmodium gallinaceum, UniProt Q9NJX9); assay type: biochemical
peak 1 of chitinase activity (native PgCHT1), sequence (Q9NJX9 entry or part of it): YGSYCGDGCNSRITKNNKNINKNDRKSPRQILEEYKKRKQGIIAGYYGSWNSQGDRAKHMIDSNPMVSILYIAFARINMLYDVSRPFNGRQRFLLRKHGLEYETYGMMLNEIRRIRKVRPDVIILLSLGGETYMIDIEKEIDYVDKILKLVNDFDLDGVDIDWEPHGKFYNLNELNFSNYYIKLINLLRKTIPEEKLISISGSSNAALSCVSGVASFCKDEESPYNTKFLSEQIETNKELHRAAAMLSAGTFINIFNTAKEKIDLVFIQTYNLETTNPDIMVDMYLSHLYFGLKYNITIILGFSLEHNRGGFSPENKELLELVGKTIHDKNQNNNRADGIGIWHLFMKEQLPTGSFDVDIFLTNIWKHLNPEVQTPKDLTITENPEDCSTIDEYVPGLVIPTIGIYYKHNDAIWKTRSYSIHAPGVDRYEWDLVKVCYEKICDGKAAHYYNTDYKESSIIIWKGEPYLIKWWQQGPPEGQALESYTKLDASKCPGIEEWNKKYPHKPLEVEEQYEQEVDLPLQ

rPgCHT1 = rPgCHT1 (Plasmodium gallinaceum, UniProt Q9NJX9); assay: biochemical
rPgCHT1, sequence (Q9NJX9 entry or part of it): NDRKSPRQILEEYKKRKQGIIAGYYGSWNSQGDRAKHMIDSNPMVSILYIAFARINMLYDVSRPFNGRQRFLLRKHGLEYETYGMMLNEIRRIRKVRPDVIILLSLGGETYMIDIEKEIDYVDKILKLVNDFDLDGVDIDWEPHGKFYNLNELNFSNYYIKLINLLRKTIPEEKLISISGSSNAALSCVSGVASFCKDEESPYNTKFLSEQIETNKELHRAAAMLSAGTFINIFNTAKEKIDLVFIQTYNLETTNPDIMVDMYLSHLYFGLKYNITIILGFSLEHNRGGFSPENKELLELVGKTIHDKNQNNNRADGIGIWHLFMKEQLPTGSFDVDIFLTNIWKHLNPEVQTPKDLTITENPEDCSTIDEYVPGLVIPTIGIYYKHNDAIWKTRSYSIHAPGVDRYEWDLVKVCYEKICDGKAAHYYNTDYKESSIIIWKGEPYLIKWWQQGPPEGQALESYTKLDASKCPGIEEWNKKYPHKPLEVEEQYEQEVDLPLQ

CC(=O)N[C@H]1[C@H](Oc2ccc3c(C)cc(=O)oc3c2)O[C@H](CO)[C@@H](O[C@@H]2O[C@H](CO)[C@@H](O[C@@H]3O[C@H](CO)[C@@H](O)[C@H](O)[C@H]3NC(C)=O)[C@H](O)[C@H]2NC(C)=O)[C@@H]1O [4-MU GlcNAc3, 4-methylumbelliferyl-N,N′,N″-β-D-triacetylchitotrioside]
Km [1]: 140 µM

CC(=O)N[C@H]1[C@H](O[C@H]2[C@@H](O)[C@@H](NC(C)=O)[C@H](O[C@H]3[C@H](O)[C@H]4N=C(N(C)C)O[C@H]4[C@@H]3CO)O[C@@H]2CO)O[C@H](CO)[C@@H](O)[C@H]1O [allosamidin]
IC50 ([2]; read-out: IC50 of PgCHT2): 0.3 µM
IC50 ([2]; read-out: IC50 value for peak 2): 0.3 µM
IC50 [3]: 7 µM
IC50 (rPgCHT1): 12 µM
